Source: US20110318393A1, “Substituted Pyrazole Compounds” (MIIKANA THERAPEUTICS, INC., priority 2008, published 2011)

Columns and labels:
Assay type in all cases: biochemical
recombinant Aurora A = molecular target: T1, recombinant Aurora A (Homo sapiens, UniProt O14965); assay: Aurora A (Aurora 2) inhibition assay, Z'-Lyte kinase assay; details: ATP 10 μM, 1 h; less than or equal to 100 nM
T1 construct: purchased Upstate, Lake Placid, N.Y
T1 sequence (O14965 1-403): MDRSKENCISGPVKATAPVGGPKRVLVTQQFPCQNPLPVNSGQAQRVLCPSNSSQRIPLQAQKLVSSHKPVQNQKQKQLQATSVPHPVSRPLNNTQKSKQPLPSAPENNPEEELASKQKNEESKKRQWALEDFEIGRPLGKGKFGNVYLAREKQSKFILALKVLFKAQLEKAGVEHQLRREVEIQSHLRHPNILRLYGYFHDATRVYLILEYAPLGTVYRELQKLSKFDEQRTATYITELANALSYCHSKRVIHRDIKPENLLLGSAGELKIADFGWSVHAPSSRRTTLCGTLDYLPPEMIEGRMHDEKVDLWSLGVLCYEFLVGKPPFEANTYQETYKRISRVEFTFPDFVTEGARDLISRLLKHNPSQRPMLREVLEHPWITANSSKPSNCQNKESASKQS
Method: Compounds were tested for their potency against recombinant Aurora A (Upstate, Lake Placid, N.Y.) using the PanVera Z′-Lyte kinase assay kit-Ser/Thr 1 peptide (Invitrogen, Carlsbad, Calif.). Assays were carried out in kinase assay buffer (50 mM HEPES, pH 7.5, 10 mM MgCl2, 5 mM EGTA, 0.05% Brij-35, 2 mM DTT). Test compounds were initially dissolved in DMSO at 100× the highest tested concentration, then serially diluted to 4× test concentrations in kinase assay buffer. Next, Aurora A (final concentration 200-500 ng/mL), Z′-Lyte Ser/Thr 1 peptide (final concentration 2 μM) and ATP (final concentration 10 μM) were added according to the manufacturer's instructions. Assays were carried out in half-area 96-well white polystyrene assay plates (Corning, Corning, N.Y.) in a final volume of 20 μl. The reaction was allowed to proceed for 1 h at room temperature in the dark, at which point the development reagent and stop reagent were added according to the manufacturer's instructions. Coumarin (Ex. 400 nm, Em. 465 nm) and fluorescein (Ex. 400 nm, Em. 565 nm) fluorescence values were measured on a SpectraFluor Plus plate reader (Tecan, Durham, N.C.). The emission ratio (coumarin/fluorescein) was determined and used to calculate the percent phosphorylation for each well. Wells containing substrate but no kinase and wells containing a phosphopeptide control were used to set 0% and 100% phosphorylation values, respectively. Typically 20-40% of the substrate was phosphorylated in wells without inhibitor. Dose-response curves of relative Aurora A activity vs. inhibitor concentration were plotted with Grafit (Erithacus Software, Horley, Surrey, UK).

[1] = molecular target: T2, N-terminal GST-tagged recombinant human Flt3, residues 564-end (Homo sapiens, UniProt P36888); assay: Flt3 kinase inhibition assay (33P-ATP filter assay); details: 40 minutes, room temperature; less than or equal to 100 nM
T2 construct: recombinant human Flt3, residues 564-end; GST (N); purchased Upstate USA Inc, Charlottesville, Va
T2 sequence (P36888 564-993 limits assumed): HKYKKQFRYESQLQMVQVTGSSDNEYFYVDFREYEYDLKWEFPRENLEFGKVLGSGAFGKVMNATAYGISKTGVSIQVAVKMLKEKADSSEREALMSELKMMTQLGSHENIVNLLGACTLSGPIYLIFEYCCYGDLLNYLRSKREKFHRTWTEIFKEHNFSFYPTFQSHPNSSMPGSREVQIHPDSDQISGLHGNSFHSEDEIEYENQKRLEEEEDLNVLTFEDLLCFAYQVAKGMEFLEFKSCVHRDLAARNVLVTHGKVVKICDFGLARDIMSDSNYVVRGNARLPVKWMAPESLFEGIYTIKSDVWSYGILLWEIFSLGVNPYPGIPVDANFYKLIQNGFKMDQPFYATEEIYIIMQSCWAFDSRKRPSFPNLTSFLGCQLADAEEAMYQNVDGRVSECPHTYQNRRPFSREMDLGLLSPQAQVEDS
Method: (§1) Compounds were assayed for Flt3 kinase inhibitory activity using N-terminal GST-tagged recombinant human Flt3, residues 564-end (Upstate USA Inc, 706 Forest Street, Charlottesville, Va.). Serial dilutions of compound were assayed in a final reaction volume of 25 μL by incubating a solution of the above Flt3 kinase (5-10 mU), 8 mM MOPS (3-(N-morpholino)propanesulfonic acid) pH 7.0, 0.2 mM EDTA (ethylenediamine tetracetic acid), 50 μM amino acid sequence EAIYAAPFAKKK (Upstate USA Inc, 706 Forest Street, Charlottesville, Va.), and 10 mM magnesium acetate and [γ-^33P-ATP] (specific activity of about 500 cpm/pmol, concentration as required). The reaction was initiated by the addition of the magnesium acetate and [γ-^33P-ATP] mixture. After incubation for 40 minutes at room temperature, the reaction was stopped by the addition of 5 μL of a 3% phosphoric acid solution. A 10 μL aliquote of the reaction was then spotted onto a P30 filtermat (PerkinElmer, Wellesley, Mass.) and washed three times for five minutes in 75 mM phosphoric acid and once in methanol prior to drying and scintillation counting. Inhibition of Flt3 activity was determined by comparison to assays that contained no inhibitor.

[2] = molecular target: T3, N-terminal His6-tagged recombinant human KDR, residues 790-end (Homo sapiens, UniProt P35968); assay: KDR kinase inhibition assay (33P-ATP filter assay); details: 40 minutes, room temperature; less than or equal to 100 nM
T3 construct: recombinant human KDR, residues 790-end; His6 (N); purchased Upstate USA Inc, Charlottesville, Va
T3 sequence (P35968 790-1356 limits assumed): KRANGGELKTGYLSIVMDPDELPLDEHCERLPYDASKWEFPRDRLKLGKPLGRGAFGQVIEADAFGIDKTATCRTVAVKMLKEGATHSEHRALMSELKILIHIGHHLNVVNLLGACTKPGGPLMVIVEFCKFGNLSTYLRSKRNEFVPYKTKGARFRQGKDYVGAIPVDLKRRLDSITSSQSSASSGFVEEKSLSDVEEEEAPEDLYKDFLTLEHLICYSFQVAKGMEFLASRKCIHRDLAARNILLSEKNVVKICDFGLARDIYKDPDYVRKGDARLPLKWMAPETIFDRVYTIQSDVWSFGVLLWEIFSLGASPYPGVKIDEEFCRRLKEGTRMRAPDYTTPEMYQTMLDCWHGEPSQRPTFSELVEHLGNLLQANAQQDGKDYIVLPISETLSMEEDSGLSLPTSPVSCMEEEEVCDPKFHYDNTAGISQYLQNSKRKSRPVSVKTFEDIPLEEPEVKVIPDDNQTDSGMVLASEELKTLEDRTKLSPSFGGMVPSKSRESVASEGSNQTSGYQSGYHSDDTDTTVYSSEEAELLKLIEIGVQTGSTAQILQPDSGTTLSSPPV
Method: as §1, with “KDR” for “Flt3”, “His6-tagged” for “GST-tagged”, “KDR,” for “Flt3,”, “790-end” for “564-end”, “0.33 mg/mL myelin basic protein” for “50 μM amino acid sequence EAIYAAPFAKKK”

[3] = molecular target: T4, N-terminal His-tagged human Src (Homo sapiens, UniProt P12931); assay: Src kinase inhibition assay (33P-ATP filter assay); details: 40 minutes, room temperature; less than or equal to 100 nM
T4 construct: His (N); purchased Upstate USA Inc, Charlottesville, Va
T4 sequence (P12931 whole entry): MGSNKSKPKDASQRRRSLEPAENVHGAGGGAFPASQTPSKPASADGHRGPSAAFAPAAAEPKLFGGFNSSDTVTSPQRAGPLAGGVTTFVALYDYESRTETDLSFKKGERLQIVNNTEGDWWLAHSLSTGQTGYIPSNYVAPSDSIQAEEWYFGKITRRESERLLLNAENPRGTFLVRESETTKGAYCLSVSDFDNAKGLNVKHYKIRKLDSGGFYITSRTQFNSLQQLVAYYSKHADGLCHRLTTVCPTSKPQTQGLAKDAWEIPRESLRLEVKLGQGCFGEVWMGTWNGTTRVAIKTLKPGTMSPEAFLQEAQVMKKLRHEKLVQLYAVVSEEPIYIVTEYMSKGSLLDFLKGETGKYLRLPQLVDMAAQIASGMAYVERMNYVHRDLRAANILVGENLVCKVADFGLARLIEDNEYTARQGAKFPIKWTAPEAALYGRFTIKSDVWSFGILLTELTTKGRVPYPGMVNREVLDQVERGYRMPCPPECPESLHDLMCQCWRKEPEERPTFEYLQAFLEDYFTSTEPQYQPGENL
Method: Compounds were assayed for Src kinase inhibitory activity using N-terminal His-tagged human Src (Upstate USA Inc, 706 Forest Street, Charlottesville, Va.). Serial dilutions of compound were assayed in a final reaction volume of 25 μL by incubating a solution of the above Src kinase (5-10 mU), 8 mM MOPS (3-(N-morpholino)propanesulfonic acid) pH 7.0, 0.2 mM EDTA (ethylenediamine tetracetic acid), 250 μM amino acid sequence KVEKIGEGTYGVVYK (Upstate USA Inc, 706 Forest Street, Charlottesville, Va.), and 10 mM magnesium acetate and [γ-^33P-ATP] (specific activity of about 500 cpm/pmol, concentration as required). The reaction was initiated by the addition of the magnesium acetate and [γ-^33P-ATP] mixture. After incubation for 40 minutes at room temperature, the reaction was stopped by the addition of 5 μL of a 3% phosphoric acid solution. A 10 μL aliquote of the reaction was then spotted onto a P30 filtermat (PerkinElmer, Wellesley, Mass.) and washed three times for five minutes in 75 mM phosphoric acid and once in methanol prior to drying and scintillation counting. Inhibition of Src activity was determined by comparison to assays that contained no inhibitor.

Measured: IC50

COC1CCN(C2CN(c3cc(Nc4cc(C)[nH]n4)nc(/C=C/c4ccccc4)n3)C2)CC1 [Compound 1, (E)-6-(3-(4-methoxypiperidin-1-yl)azetidin-1-yl)-N-(5-methyl-1H-pyrazol-3-yl)-2-styrylpyrimidin-4-amine]
≤ 100 nM: all assays above

Cc1cc(Nc2cc(N3CCC(N4CCCC4)CC3)nc(/C=C/c3ccccc3)n2)n[nH]1 [Compound 2, (E)-N-(5-methyl-1H-pyrazol-3-yl)-6-(4-(pyrrolidin-1-yl)piperidin-1-yl)-2-styrylpyrimidin-4-amine]
≤ 100 nM: all assays above

Cc1cc(Nc2cc(N3CCN(C4CCN(C)CC4)CC3)nc(/C=C/c3ccccc3)n2)n[nH]1 [Compound 4, (E)-N-(5-methyl-1H-pyrazol-3-yl)-6-(4-(1-methylpiperidin-4-yl)piperazin-1-yl)-2-styrylpyrimidin-4-amine]
≤ 100 nM: all assays above

Cc1cc(Nc2cc(N3CCN(c4ccccc4)CC3)nc(/C=C/c3ccccc3)n2)n[nH]1 [Compound 8, (E)-N-(5-methyl-1H-pyrazol-3-yl)-6-(4-phenylpiperazin-1-yl)-2-styrylpyrimidin-4-amine]
≤ 100 nM: [1]

Cc1cc(Nc2cc(N3CCN(C4CCCCC4)CC3)nc(/C=C/c3ccccc3)n2)n[nH]1 [Compound 9, (E)-6-(4-cyclohexylpiperazin-1-yl)-N-(5-methyl-1H-pyrazol-3-yl)-2-styrylpyrimidin-4-amine]
≤ 100 nM: all assays above

Cc1cc(Nc2cc(N3CCN(c4ccc(C#N)cc4)CC3)nc(/C=C/c3ccccc3)n2)n[nH]1 [Compound 10, (E)-4-(4-(6-(5-methyl-1H-pyrazol-3-ylamino)-2-styrylpyrimidin-4-yl)piperazin-1-yl)benzonitrile]
≤ 100 nM: [1]

Cc1cc(Nc2cc(N3CCC(O)(c4ccc(Cl)cc4)CC3)nc(/C=C/c3ccccc3)n2)n[nH]1 [Compound 11, (E)-4-(4-chlorophenyl)-1-(6-(5-methyl-1H-pyrazol-3-ylamino)-2-styrylpyrimidin-4-yl)piperidin-4-ol]
≤ 100 nM: [1]

Cc1cc(Nc2cc(N3CCN(c4ccc([N+](=O)[O-])cc4)CC3)nc(/C=C/c3ccccc3)n2)n[nH]1 [Compound 12, (E)-N-(5-methyl-1H-pyrazol-3-yl)-6-(4-(4-nitrophenyl)piperazin-1-yl)-2-styrylpyrimidin-4-amine]
≤ 100 nM: [1] | [2]

Cc1cc(Nc2cc(N3CCN(CCN4CCOCC4)CC3)nc(/C=C/c3ccccc3)n2)n[nH]1 [Compound 13, (E)-N-(5-methyl-1H-pyrazol-3-yl)-6-(4-(2-morpholinoethyl)piperazin-1-yl)-2-styrylpyrimidin-4-amine]
≤ 100 nM: all assays above

Cc1cc(Nc2cc(N3CCN(c4ccccn4)CC3)nc(/C=C/c3ccccc3)n2)n[nH]1 [Compound 14, (E)-N-(5-methyl-1H-pyrazol-3-yl)-6-(4-(pyridin-2-yl)piperazin-1-yl)-2-styrylpyrimidin-4-amine]
≤ 100 nM: recombinant Aurora A | [1]

Cc1cc(Nc2cc(N3CC(N4CCOCC4)C3)nc(/C=C/c3ccccc3)n2)n[nH]1 [Compound 15, (E)-N-(5-methyl-1H-pyrazol-3-yl)-6-(3-morpholinoazetidin-1-yl)-2-styrylpyrimidin-4-amine]
≤ 100 nM: all assays above

Cc1cc(Nc2cc(N3CCC(O)(Cc4ccccc4)CC3)nc(/C=C/c3ccccc3)n2)n[nH]1 [Compound 16]
≤ 100 nM: recombinant Aurora A | [1]

Cc1cc(Nc2cc(N3CC(N4CCCCC4)C3)nc(/C=C/c3ccccc3)n2)n[nH]1 [Compound 18, (E)-N-(5-methyl-1H-pyrazol-3-yl)-6-(3-(piperidin-1-yl)azetidin-1-yl)-2-styrylpyrimidin-4-amine]
≤ 100 nM: all assays above

Cc1cc(Nc2cc(N3CC(N4CCC(O)CC4)C3)nc(/C=C/c3ccccc3)n2)n[nH]1 [Compound 21, (E)-1-(1-(6-(5-methyl-1H-pyrazol-3-ylamino)-2-styrylpyrimidin-4-yl)azetidin-3-yl)piperidin-4-ol]
≤ 100 nM: all assays above

Cc1cc(Nc2cc(N3CCC(N4CCCCC4)C3)nc(/C=C/c3ccccc3)n2)n[nH]1 (stereo not drawn) [Compound 23, (E)-N-(5-methyl-1H-pyrazol-3-yl)-6-(3-(piperidin-1-yl)pyrrolidin-1-yl)-2-styrylpyrimidin-4-amine]
≤ 100 nM: all assays above
